In paper PMC7802074, “Azanitrile Inhibitors of the SmCB1 Protease Target Are Lethal to Schistosoma mansoni: Structural and Mechanistic Insights into Chemotype Reactivity” (ACS Infectious Diseases, 2020):
Values joined by “and” are separate entries in the source; they are usually repeats but may differ in a detail not shown here. Equal values may be shown once. Read-outs that look alike come from different tables or passages of the source.

Columns and labels:
[1] = Cytotoxicity, XTT test, HUVEC; assay type: cell-based; conditions: human, % viability vs. untreated cells, read-out: Cell line viability after 72 h
Method: (§1) T able S4. […]
(§2) Cell line viability after 72 h (%)a
(§3) Inhibitor 1 µM 10 µM 1 µM 10 µM
(§4) aCytotoxicity of the inhibitors towards human cell lines are expressed as % viability vs. untreated cells. Cells were treated with
(§5) the indicated concentration of the compounds for 72 h and assayed by means of the XTT test (as described previously 12).
(§6) Standard deviation values were within 10% of the mean of tetraplicates. […]

[2] = tested on: S. mansoni newly transformed schistosomula (NTS); assay: Schistosome phenotypic assay; assay type: cell-based, Schistosoma mansoni; conditions: for Descriptors Day 1 (phenotypic changes) / Descriptors Day 2 (phenotypic changes) / Descriptors Day 3 (phenotypic changes) / Descriptors Day 4 (phenotypic changes): 10 µM inhibitor; for Severity score Day 1 / Severity score Day 2 / Severity score Day 3 / Severity score Day 4: 10 μM inhibitor, scale 0 (no effect) to 4 (severe); for Severity score Day 1: 24 h; for Severity score Day 2: 48 h
Method: Newly transformed schistosomula (NTS) of S. mansoni were prepared by mechanically transforming infective larvae (cercariae) as described previously.[70],[71] NTS (200–300 parasites) were incubated in 200 μL of Basch Medium 169 containing 5% FBS, 100 U mL^–1 penicillin, and 100 μg mL^–1 streptomycin at 5% CO2 and 37 °C.[70],[72],[73] Inhibitors were added at the final concentration of 10 μM,[20],[69] and changes in phenotypes were observed every 24 h for up to 4 days. A constrained nomenclature of “descriptors” is used to record the multiple and dynamic changes in movement, shape, and translucence of which the schistosome parasite is capable (Table S3).[70] These descriptors are then converted into an ordinal “severity score” system from 0 (no effect) to 4 (maximum effect), which allows for the relative comparison of compound effects, as described.[74],[75] Images of NTS were captured using a Zeiss Axiovert 40 C inverted microscope (10× objective) and a Zeiss AxioCam MRc digital camera controlled by AxioVision 40 (v. 4.8.1.0) software.

[3] = Cytotoxicity, XTT test, HepG2; assay type: cell-based; conditions: human, % viability vs. untreated cells, read-out: Cell line viability after 72 h; for viability at 72 h, 1 µM: HepG2, 1 µM; for viability at 72 h, 10 µM: HepG2, 10 µM
Method: as §1, §2, §3, §4, §5, §6

[4] = biological target: recombinant SmCB1 (Schistosoma mansoni, UniProt Q8MNY2, T185A/T300A); assay: SmCB1 kinetic inhibition assay with fluorogenic substrate Cbz-Phe-Arg-AMC; assay type: biochemical; conditions: substrate Cbz-Phe-Arg-AMC; for SmCB1 inhibition k2nd (second-order rate constant): slow-binding azadipeptide nitriles
Sequence of recombinant SmCB1 (Q8MNY2 87-340 T185A/T300A): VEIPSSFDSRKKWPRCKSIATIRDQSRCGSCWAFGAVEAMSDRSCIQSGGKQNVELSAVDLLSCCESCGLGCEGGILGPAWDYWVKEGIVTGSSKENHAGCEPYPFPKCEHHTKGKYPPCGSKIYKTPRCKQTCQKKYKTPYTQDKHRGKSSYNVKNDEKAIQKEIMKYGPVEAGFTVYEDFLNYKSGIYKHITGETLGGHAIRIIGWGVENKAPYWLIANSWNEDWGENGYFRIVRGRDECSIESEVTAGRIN
Method: Inhibition measurements were performed in triplicates in 96-well microplates (100 μL assay volume) at 37 °C. SmCB1 (20–40 pM) was added to a mixture of the fluorogenic substrate Cbz-Phe-Arg-AMC (20 μM) and an inhibitor (0–100 μM) in 0.1 M sodium acetate, pH 5.5, containing 2.5 mM dithiothreitol and 0.1% PEG 6000. The substrate hydrolysis was monitored in an Infinite M1000 microplate reader (Tecan, Männedorf, Switzerland) at excitation and emission wavelengths of 360 and 465 nm, respectively, for up to 15 and 60 min for fast- and slow-binding inhibitors, respectively. […] For slow-binding inhibitors, an observed first-order rate constant kobs was calculated at each inhibitor concentration by fitting the progress curve to the equation P = vst + (vi – vs)(1 – […])/kobs + d, where P is the product formation, vs is the steady-state velocity, t is the reaction time, vi is the initial velocity, and d is the offset. The inhibition constant Ki′ was determined by nonlinear regression using the equation vs/v0 = 1/(1 + [I]/Ki′). The true inhibition constants Ki were then calculated using the equation Ki = Ki′/(1 + [S]/Km), where [S] is the substrate concentration and Km is the Michaelis constant. The apparent second-order rate constant k2nd′ was determined by fitting to the linear equation kobs = k2nd′[I] + koff, where koff is the first-order rate constants for the dissociation of the enzyme–inhibitor complex and the true constant k2nd was calculated by the correction k2nd = k2nd′(1 + [S]/Km). […] In none of the assay systems did the final concentration of DMSO exceed 1.5%.

[5] = SmCB1 inhibition Ki, kinetic activity assay, pH 5.5, 37 °C
[6] = SmCB1 inhibition Ki, Table S2, carbadipeptide nitriles
[7] = Table S2, carbadipeptide nitriles, read-out: SmCB1 inhibition Ki

Row | Compound | viability at 72 h, 1 µM [1] | viability at 72 h, 10 µM [1] | Descriptors Day 1 (phenotypic changes) [2] | Descriptors Day 2 (phenotypic changes) [2] | Severity score Day 1 [2] | Severity score Day 2 [2] | Severity score Day 3 [2] | Severity score Day 4 [2] | viability at 72 h, 1 µM [3] | viability at 72 h, 10 µM [3] | Ki [4, 5] | SmCB1 inhibition k2nd (second-order rate constant) [4] | Ki [4, 6] | Descriptors Day 3 (phenotypic changes) [2] | Descriptors Day 4 (phenotypic changes) [2] | Ki [4, 7]
1 | CC(C)CC(NC(=O)NCc1ccccc1)C(=O)N(C)N(C)C#N (centres unmarked) [Compound 3a] | 106% | 90% | R, Unc, Dark | Deg | 3 | 4 | 4 | 4 | 82% | 83% | 6.1 ± 0.7 nM | 20.4 10^3 M^-1 s^-1 and 20.4 ± 1.9 10^3 M^-1 s^-1 |  |  |  | 
2 | CC(C)C[C@H](NC(=O)c1ccc(-c2noc(-c3cccs3)n2)cc1)C(=O)N(C)N(C)C#N [Compound 5a] | 91% | 66% | Deg | Deg | 2 | 4 | 4 | 4 | 91% | 101% | 4.8 ± 0.3 nM | 29.0 10^3 M^-1 s^-1 and 29.0 ±1.4 10^3 M^-1 s^-1 |  |  |  | 
3 | CN(C(=O)[C@H](Cc1ccccc1)NC(=O)OCc1ccccc1)N(C#N)CCc1ccccc1 [Compound 8a] | 101% | 44% | Deg |  | 4 and 4/4 | 4 and 4/4 | 4 | 4 | 102% | 83% | 4.8 ± 0.2 nM | 5.2 10^3 M^-1 s^-1 and 5.2 ± 0.4 10^3 M^-1 s^-1 |  |  |  | 
4 | CN(CC#N)C(=O)[C@H](Cc1ccccc1)NC(=O)OCc1ccccc1 [Compound 9c] |  |  |  |  | 0 | 0 | 0 | 0 |  |  | > 100000 nM |  | > 10000 nM |  |  | 
5 | CN(C(=O)[C@H](Cc1ccccc1)NC(=O)OCc1ccccc1)N(C#N)Cc1ccccc1 [Compound 10a] |  |  | R, Unc | Deg | 2 | 4 | 4 | 4 |  |  | 48.9 ± 4.7 nM | 1.5 ± 0.1 10^3 M^-1 s^-1 |  |  |  | 
6 | C[C@@H](C#N)N(C)C(=O)[C@H](Cc1ccccc1)NC(=O)OCc1ccccc1 [Compound 10c] |  |  |  |  | 0 | 0 | 0 | 0 |  |  | > 100000 nM |  | > 10000 nM |  |  | 
7 | CCC(C)C(NC(=O)OCc1ccccc1)C(=O)N(C)N(C)C#N (centres unmarked) [Compound 12a] |  |  | Deg |  | 4 and 4/4 | 4 and 4/4 | 4 | 4 |  |  | 71.7 ± 4.4 nM |  |  |  |  | 
8 | COc1ccc(C[C@H](NC(=O)OCc2ccccc2)C(=O)N(C)N(C)C#N)cc1 [Compound 13a] |  |  | Deg | Deg | 4 and 4/4 | 4 and 4/4 | 4 | 4 |  |  | 80.6 ± 7.1 nM |  |  |  |  | 
9 | CC(C)[C@H](NC(=O)OCc1ccccc1)C(=O)N(C)N(C)C#N [Compound 14a] |  |  | R, Unc, Dark | Deg | 3 | 4 | 4 | 4 |  |  | 88.3 ± 10.4 nM |  |  |  |  | 
10 | C[C@H](NC(=O)OCc1ccccc1)C(=O)N(C)N(C)C#N [Compound 15a] |  |  | R, Unc | Deg | 2 | 4 | 4 | 4 |  |  | 714 ± 58 nM |  |  |  |  | 
11 | Cc1nc(-c2ccc(CNC(=O)N[C@@H](CC(C)C)C(=O)N(C)N(C)C#N)cc2)no1 [Compound 16a] |  |  |  | R, Unc | 0 | 2 | 3 | 4 |  |  | 30 ± 4.1 nM | 9.2 ± 0.8 10^3 M^-1 s^-1 |  | R, Unc, Dark | Deg | 
12 | CC(C)C[C@H](NC(=O)NCc1ccc(-c2noc(-c3cccs3)n2)cc1)C(=O)N(C)N(C)C#N [Compound 17a] |  |  |  |  | 0 and 0/0 | 0 and 0/0 | 0 | 0 |  |  | 58.3 ± 2.8 nM | 3.1 ± 0.6 10^3 M^-1 s^-1 |  |  |  | 
13 | CC(C)C[C@H](NC(=O)Nc1ccccc1)C(=O)N(C)N(C)C#N [Compound 18a] |  |  | R, Unc | Deg | 2 | 4 | 4 | 4 |  |  | 112 ± 11 nM |  |  |  |  | 
14 | CCCC[C@H](NC(=O)OC(C)(C)C)C(=O)NCC#N [Gü967] |  |  |  |  | 0 | 0 | 0 | 0 |  |  |  |  |  |  |  | 870 ± 100 nM
15 | CC(C)(C)OC(=O)N[C@@H](Cc1cccs1)C(=O)NCC#N [Gü969] |  |  |  |  | 0 | 0 | 0 | 0 |  |  |  |  |  |  |  | 620 ± 50 nM
16 | CC(C)(C)OC(=O)N[C@@H](Cc1ccc(-c2ccccc2)cc1)C(=O)NCC#N [Gü1124] |  |  |  |  | 0 | 0 | 0 | 0 |  |  |  |  |  |  |  | 270 ± 50 nM
17 | N#CCNC(=O)[C@H](Cc1ccccc1)NC(=O)c1ccc(-c2ccccc2)cc1 [Gü1136] |  |  |  |  | 0 | 0 | 0 | 0 |  |  |  |  |  |  |  | 53 ± 12 nM
18 | N#CCNC(=O)[C@H](Cc1ccc(O)cc1)NC(=O)OCc1ccccc1 [Gü2031] |  |  |  |  | 0 | 0 | 0 | 0 |  |  |  |  |  |  |  | 760 ± 220 nM
19 | CC(C)C[C@H](NC(=O)c1ccc(-c2ccccc2)cc1)C(=O)NCC#N [Gü2420] |  |  |  | R, Dark | 0 | 2 | 2 | 2 |  |  |  |  |  | R, Dark | R, Dark | 56 ± 13 nM
20 | N#CCNC(=O)[C@H](CC1CCCCC1)NC(=O)c1ccc(-c2noc(-c3cccs3)n2)cc1 [Gü2421] |  |  | R, S | R, S | 2 | 2 | 3 | 3 |  |  |  |  |  | R, S, Dark | R, S, Dark | 12 ± 4 nM
